Assay results reported in the NIST ThermoML archive (doi:10.1016/j.jct.2008.10.010).
Numbers after ± are expanded uncertainties.

Experiment: molar heat capacity at constant pressure; xn = mol fraction of the nth substance listed
Details: 101.3 kPa, Liquid, Small sample (50 mg) DSC

SMILES: CCC(C)(C)O [2-methylbutan-2-ol] + CCCCCCC
- molar heat capacity at constant pressure (336.14 K, x1 = 0.1): 252.29 ± 3.9 J/K/mol
- molar heat capacity at constant pressure (336.14 K, x1 = 0.1547): 260.02 ± 4 J/K/mol
- molar heat capacity at constant pressure (336.14 K, x1 = 0.1999): 265.26 ± 4.1 J/K/mol
- molar heat capacity at constant pressure (336.14 K, x1 = 0.2993): 273.56 ± 4.2 J/K/mol
- molar heat capacity at constant pressure (336.14 K, x1 = 0.4051): 279.11 ± 4.3 J/K/mol
- molar heat capacity at constant pressure (336.14 K, x1 = 0.4986): 282.65 ± 4.4 J/K/mol
- molar heat capacity at constant pressure (336.14 K, x1 = 0.5981): 285.05 ± 4.4 J/K/mol
- molar heat capacity at constant pressure (336.14 K, x1 = 0.7015): 286.5 ± 4.4 J/K/mol
- molar heat capacity at constant pressure (336.14 K, x1 = 0.8023): 286.51 ± 4.4 J/K/mol
- molar heat capacity at constant pressure (336.14 K, x1 = 0.9139): 285.7 ± 4.4 J/K/mol
- molar heat capacity at constant pressure (336.14 K, x1 = 0.9609): 284.91 ± 4.4 J/K/mol
- molar heat capacity at constant pressure (337.15 K, x1 = 0.0061): 240.08 ± 3.7 J/K/mol
- molar heat capacity at constant pressure (337.15 K, x1 = 0.0249): 241 ± 3.7 J/K/mol
- molar heat capacity at constant pressure (337.15 K, x1 = 0.0494): 244 ± 3.8 J/K/mol
- molar heat capacity at constant pressure (337.15 K, x1 = 0.1): 252.41 ± 3.9 J/K/mol
- molar heat capacity at constant pressure (337.15 K, x1 = 0.1547): 260.16 ± 4 J/K/mol
- molar heat capacity at constant pressure (337.15 K, x1 = 0.1999): 265.46 ± 4.1 J/K/mol
- molar heat capacity at constant pressure (337.15 K, x1 = 0.2993): 273.86 ± 4.2 J/K/mol
- molar heat capacity at constant pressure (337.15 K, x1 = 0.4051): 279.59 ± 4.3 J/K/mol
- molar heat capacity at constant pressure (337.15 K, x1 = 0.4986): 283.2 ± 4.4 J/K/mol
- molar heat capacity at constant pressure (337.15 K, x1 = 0.5981): 285.63 ± 4.4 J/K/mol
- molar heat capacity at constant pressure (337.15 K, x1 = 0.7015): 287.22 ± 4.5 J/K/mol
- molar heat capacity at constant pressure (337.15 K, x1 = 0.8023): 287.25 ± 4.5 J/K/mol
- molar heat capacity at constant pressure (337.15 K, x1 = 0.9139): 286.44 ± 4.4 J/K/mol
- molar heat capacity at constant pressure (337.15 K, x1 = 0.9609): 285.69 ± 4.4 J/K/mol
- molar heat capacity at constant pressure (338.14 K, x1 = 0.0061): 240.6 ± 3.7 J/K/mol
- molar heat capacity at constant pressure (338.14 K, x1 = 0.0249): 241.26 ± 3.7 J/K/mol
- molar heat capacity at constant pressure (338.14 K, x1 = 0.0494): 244.22 ± 3.8 J/K/mol
- molar heat capacity at constant pressure (338.14 K, x1 = 0.1): 252.49 ± 3.9 J/K/mol
- molar heat capacity at constant pressure (338.14 K, x1 = 0.2993): 274.14 ± 4.2 J/K/mol
- molar heat capacity at constant pressure (338.14 K, x1 = 0.4051): 280.08 ± 4.3 J/K/mol
- molar heat capacity at constant pressure (338.14 K, x1 = 0.4986): 283.63 ± 4.4 J/K/mol
- molar heat capacity at constant pressure (338.14 K, x1 = 0.5981): 286.18 ± 4.4 J/K/mol
- molar heat capacity at constant pressure (338.14 K, x1 = 0.7015): 287.86 ± 4.5 J/K/mol
- molar heat capacity at constant pressure (338.14 K, x1 = 0.8023): 287.94 ± 4.5 J/K/mol
- molar heat capacity at constant pressure (338.14 K, x1 = 0.9139): 287.19 ± 4.5 J/K/mol
- molar heat capacity at constant pressure (338.16 K, x1 = 0.1547): 260.35 ± 4 J/K/mol
- molar heat capacity at constant pressure (338.16 K, x1 = 0.1999): 265.67 ± 4.1 J/K/mol
- molar heat capacity at constant pressure (338.16 K, x1 = 0.9609): 286.41 ± 4.4 J/K/mol
- molar heat capacity at constant pressure (339.14 K, x1 = 0.0061): 241 ± 3.7 J/K/mol
- molar heat capacity at constant pressure (339.14 K, x1 = 0.0249): 241.65 ± 3.7 J/K/mol
- molar heat capacity at constant pressure (339.14 K, x1 = 0.0494): 244.45 ± 3.8 J/K/mol
- molar heat capacity at constant pressure (339.14 K, x1 = 0.1): 252.62 ± 3.9 J/K/mol
- molar heat capacity at constant pressure (339.14 K, x1 = 0.1547): 260.43 ± 4 J/K/mol
- molar heat capacity at constant pressure (339.14 K, x1 = 0.1999): 265.8 ± 4.1 J/K/mol
- molar heat capacity at constant pressure (339.14 K, x1 = 0.2993): 274.34 ± 4.2 J/K/mol
- molar heat capacity at constant pressure (339.14 K, x1 = 0.4051): 280.35 ± 4.3 J/K/mol
- molar heat capacity at constant pressure (339.14 K, x1 = 0.4986): 284.12 ± 4.4 J/K/mol
- molar heat capacity at constant pressure (339.14 K, x1 = 0.5981): 286.77 ± 4.4 J/K/mol
- molar heat capacity at constant pressure (339.14 K, x1 = 0.7015): 288.43 ± 4.5 J/K/mol
- molar heat capacity at constant pressure (339.14 K, x1 = 0.8023): 288.55 ± 4.5 J/K/mol
- molar heat capacity at constant pressure (339.14 K, x1 = 0.9139): 287.89 ± 4.5 J/K/mol
- molar heat capacity at constant pressure (339.14 K, x1 = 0.9609): 287.02 ± 4.5 J/K/mol
- molar heat capacity at constant pressure (340.15 K, x1 = 0.0061): 241.53 ± 3.7 J/K/mol
- molar heat capacity at constant pressure (340.15 K, x1 = 0.0249): 242.15 ± 3.8 J/K/mol
- molar heat capacity at constant pressure (340.15 K, x1 = 0.0494): 244.83 ± 3.8 J/K/mol
- molar heat capacity at constant pressure (340.15 K, x1 = 0.1): 252.82 ± 3.9 J/K/mol
- molar heat capacity at constant pressure (340.15 K, x1 = 0.1547): 260.57 ± 4 J/K/mol
- molar heat capacity at constant pressure (340.15 K, x1 = 0.1999): 266.02 ± 4.1 J/K/mol
- molar heat capacity at constant pressure (340.15 K, x1 = 0.2993): 274.71 ± 4.3 J/K/mol
- molar heat capacity at constant pressure (340.15 K, x1 = 0.4051): 280.76 ± 4.3 J/K/mol
- molar heat capacity at constant pressure (340.15 K, x1 = 0.4986): 284.68 ± 4.4 J/K/mol
- molar heat capacity at constant pressure (340.15 K, x1 = 0.5981): 287.28 ± 4.5 J/K/mol
- molar heat capacity at constant pressure (340.15 K, x1 = 0.7015): 289.07 ± 4.5 J/K/mol
- molar heat capacity at constant pressure (340.15 K, x1 = 0.8023): 289.24 ± 4.5 J/K/mol
- molar heat capacity at constant pressure (340.15 K, x1 = 0.9139): 288.58 ± 4.5 J/K/mol
- molar heat capacity at constant pressure (340.15 K, x1 = 0.9609): 287.73 ± 4.5 J/K/mol
- molar heat capacity at constant pressure (341.14 K, x1 = 0.0249): 242.51 ± 3.8 J/K/mol
- molar heat capacity at constant pressure (341.14 K, x1 = 0.9139): 289.17 ± 4.5 J/K/mol
- molar heat capacity at constant pressure (341.16 K, x1 = 0.0061): 241.89 ± 3.8 J/K/mol
- molar heat capacity at constant pressure (341.16 K, x1 = 0.0494): 245.03 ± 3.8 J/K/mol
- molar heat capacity at constant pressure (341.16 K, x1 = 0.1): 252.79 ± 3.9 J/K/mol
- molar heat capacity at constant pressure (341.16 K, x1 = 0.1547): 260.64 ± 4 J/K/mol
- molar heat capacity at constant pressure (341.16 K, x1 = 0.1999): 266.06 ± 4.1 J/K/mol
- molar heat capacity at constant pressure (341.16 K, x1 = 0.2993): 274.84 ± 4.3 J/K/mol
- molar heat capacity at constant pressure (341.16 K, x1 = 0.4051): 281 ± 4.3 J/K/mol
- molar heat capacity at constant pressure (341.16 K, x1 = 0.4986): 284.87 ± 4.4 J/K/mol
- molar heat capacity at constant pressure (341.16 K, x1 = 0.5981): 287.66 ± 4.5 J/K/mol
- molar heat capacity at constant pressure (341.16 K, x1 = 0.7015): 289.5 ± 4.5 J/K/mol
- molar heat capacity at constant pressure (341.16 K, x1 = 0.8023): 289.74 ± 4.5 J/K/mol
- molar heat capacity at constant pressure (341.16 K, x1 = 0.9609): 288.3 ± 4.5 J/K/mol
- molar heat capacity at constant pressure (342.14 K, x1 = 0.0061): 242.38 ± 3.8 J/K/mol
- molar heat capacity at constant pressure (342.14 K, x1 = 0.0249): 242.91 ± 3.8 J/K/mol
- molar heat capacity at constant pressure (342.14 K, x1 = 0.0494): 245.35 ± 3.8 J/K/mol
- molar heat capacity at constant pressure (342.14 K, x1 = 0.1): 253 ± 3.9 J/K/mol
- molar heat capacity at constant pressure (342.14 K, x1 = 0.1547): 260.67 ± 4 J/K/mol
- molar heat capacity at constant pressure (342.14 K, x1 = 0.1999): 266.17 ± 4.1 J/K/mol
- molar heat capacity at constant pressure (342.14 K, x1 = 0.2993): 275.1 ± 4.3 J/K/mol
- molar heat capacity at constant pressure (342.14 K, x1 = 0.4051): 281.32 ± 4.4 J/K/mol
- molar heat capacity at constant pressure (342.14 K, x1 = 0.4986): 285.37 ± 4.4 J/K/mol
- molar heat capacity at constant pressure (342.14 K, x1 = 0.5981): 288.22 ± 4.5 J/K/mol
- molar heat capacity at constant pressure (342.14 K, x1 = 0.7015): 290.08 ± 4.5 J/K/mol
- molar heat capacity at constant pressure (342.14 K, x1 = 0.8023): 290.39 ± 4.5 J/K/mol
- molar heat capacity at constant pressure (342.14 K, x1 = 0.9139): 289.86 ± 4.5 J/K/mol
- molar heat capacity at constant pressure (342.14 K, x1 = 0.9609): 288.96 ± 4.5 J/K/mol
- molar heat capacity at constant pressure (343.15 K, x1 = 0.0061): 242.71 ± 3.8 J/K/mol
- molar heat capacity at constant pressure (343.15 K, x1 = 0.0249): 243.18 ± 3.8 J/K/mol
- molar heat capacity at constant pressure (343.15 K, x1 = 0.0494): 245.62 ± 3.8 J/K/mol
- molar heat capacity at constant pressure (343.15 K, x1 = 0.1): 253.03 ± 3.9 J/K/mol
- molar heat capacity at constant pressure (343.15 K, x1 = 0.1547): 260.73 ± 4 J/K/mol
- molar heat capacity at constant pressure (343.15 K, x1 = 0.1999): 266.34 ± 4.1 J/K/mol
- molar heat capacity at constant pressure (343.15 K, x1 = 0.2993): 275.23 ± 4.3 J/K/mol
- molar heat capacity at constant pressure (343.15 K, x1 = 0.4051): 281.6 ± 4.4 J/K/mol
- molar heat capacity at constant pressure (343.15 K, x1 = 0.4986): 285.7 ± 4.4 J/K/mol
- molar heat capacity at constant pressure (343.15 K, x1 = 0.5981): 288.61 ± 4.5 J/K/mol
- molar heat capacity at constant pressure (343.15 K, x1 = 0.7015): 290.51 ± 4.5 J/K/mol
- molar heat capacity at constant pressure (343.15 K, x1 = 0.8023): 290.89 ± 4.5 J/K/mol
- molar heat capacity at constant pressure (343.15 K, x1 = 0.9139): 290.38 ± 4.5 J/K/mol
- molar heat capacity at constant pressure (343.15 K, x1 = 0.9609): 289.53 ± 4.5 J/K/mol
- molar heat capacity at constant pressure (344.16 K, x1 = 0.0061): 243.26 ± 3.8 J/K/mol
- molar heat capacity at constant pressure (344.16 K, x1 = 0.0249): 243.63 ± 3.8 J/K/mol
- molar heat capacity at constant pressure (344.16 K, x1 = 0.0494): 245.97 ± 3.8 J/K/mol
- molar heat capacity at constant pressure (344.16 K, x1 = 0.1): 253.15 ± 3.9 J/K/mol
- molar heat capacity at constant pressure (344.16 K, x1 = 0.1547): 260.83 ± 4 J/K/mol
- molar heat capacity at constant pressure (344.16 K, x1 = 0.1999): 266.48 ± 4.1 J/K/mol
- molar heat capacity at constant pressure (344.16 K, x1 = 0.2993): 275.42 ± 4.3 J/K/mol
- molar heat capacity at constant pressure (344.16 K, x1 = 0.4051): 281.89 ± 4.4 J/K/mol
- molar heat capacity at constant pressure (344.16 K, x1 = 0.4986): 286.07 ± 4.4 J/K/mol
- molar heat capacity at constant pressure (344.16 K, x1 = 0.5981): 289.06 ± 4.5 J/K/mol
- molar heat capacity at constant pressure (344.16 K, x1 = 0.7015): 291.07 ± 4.5 J/K/mol
- molar heat capacity at constant pressure (344.16 K, x1 = 0.8023): 291.49 ± 4.5 J/K/mol
- molar heat capacity at constant pressure (344.16 K, x1 = 0.9139): 291.02 ± 4.5 J/K/mol
- molar heat capacity at constant pressure (344.16 K, x1 = 0.9609): 290.18 ± 4.5 J/K/mol
- molar heat capacity at constant pressure (345.14 K, x1 = 0.0061): 243.73 ± 3.8 J/K/mol
